For 27 compounds, IC50 results are on record in patent US10112899B2 (ViiV HEALTHCARE UK LIMITED, priority 2014, dated 2018).

pIC50: −log10 of the molar value.

The pIC50 is −log10 of the IC50, conventionally taken in molar units. Low readings indicate a large IC50, high ones a small IC50.

The test system of one assay is HIV in the HTLV-1 transformed cell line MT-4. The assay is described as follows: organism not typed. In kind it is cell-based. To be noted: MT4, 96 h, MT-4 cells; luciferase/cell titer glo readout after 96 hours; 10 point dose response. For orientation: In ATP-based viability assays light output follows the ATP content of the culture.
The compound `Cc1c(-c2c(C)c3c(c(C)c2[C@H](OC(C)(C)C)C(=O)O)CN(C(=O)NCC(C)(C)C)C3)cc(F)c2c1CCCO2` (atropisomer, axis not shown; (M)) [Example 207, (S)-2-(tert-butoxy)-2-((M)-6-(8-fluoro-5-methylchroman-6-yl)-4,7-dimethyl-2-(neopentylcarbamoyl)isoindolin-5-yl)acetic acid] had a pIC50 of 8.40.
On the same count and under the same terms, the value for `Cc1cccc(C(=O)N2Cc3c(C)c(-c4cc(F)c5c(c4C)CCCO5)c([C@H](OC(C)(C)C)C(=O)O)c(C)c3C2)c1` (atropisomer, axis not shown; (M)) [Example 149, (S)-2-(tert-butoxy)-2-((M)-6-(8-fluoro-5-methylchroman-6-yl)-4,7-dimethyl-2-(3-methylbenzoyl)isoindolin-5-yl)acetic acid] was 8.70; that for `Cc1c(-c2c(C)c3c(c(C)c2[C@H](OC(C)(C)C)C(=O)O)CN(C(=O)c2cccc(Cl)c2)C3)cc(F)c2c1CCCO2` (atropisomer, axis not shown; (M)) [Example 147, (S)-2-(tert-butoxy)-2-((M)-2-(3-chlorobenzov)-6-(8-fluoro-5-methylchroman-6-yl)-4,7-dimethylisoindolin-5-yl)acetic acid] was 7.89; that for `Cc1cc(Cl)ccc1-c1c(C)c2c(c(C)c1C(OC(C)(C)C)C(=O)O)CN(C(=O)N1CCC(F)(F)C1)C2` (stereo not drawn) [Example 323, 2-(tert-butoxy)-2-(6-(4-chloro-2-methylphenyl)-2-(3,3-difluoropyrrolidine-1-carbonyl)-4,7-dimethylisoindolin-5-yl)acetic acid] was 7.89.
The same measure, in the same setting: in the case of `Cc1c(-c2c(C)c3c(c(C)c2[C@H](OC(C)(C)C)C(=O)O)CN(C(=O)N2CCCCC2)C3)cc(F)c2c1CCCO2` (atropisomer, axis not shown; (M)) [Example 101, (2S)-2-(tert-butoxy)-2-(6-(M)-(8-fluoro-5-methylchroman-6-yl)-4,7-dimethyl-2-(piperidine-1-carbonyl)isoindolin-5-yl)acetic acid] it was 8.52; in that of `Cc1c(-c2c(C)c3c(c(C)c2[C@H](OC(C)(C)C)C(=O)O)CN(c2nnc(Cc4ccc(F)c(F)c4)o2)C3)cc(F)c2c1CCCO2` (atropisomer, axis not shown; (M)) [Example 203, (S)-2-(tert-butoxy)-2-((M)-2-(5-(3,4-difluorobenzyl)-1,3,4-oxadiazol-2-yl)-6-(8-fluoro-5-methylchroman-6-yl)-4,7-dimethylisoindolin-5-yl)acetic acid], 7.20; in that of `Cc1ccc(-c2c(C)c3c(c(C)c2[C@H](OC(C)(C)C)C(=O)O)CN(C(=O)N2CCN(C)C(=O)C2)C3)cc1` [Example 90, (S)-2-(tert-butoxy)-2-(4,7-dimethyl-2-(4-methyl-3-oxopiperazine-1-carbonyl)-6-(p-tolyl)isoindolin-5-yl)acetic acid], 6.57.
As for `Cc1c(-c2c(C)c3c(c(C)c2[C@H](OC(C)(C)C)C(=O)O)CN(Cc2cccc4c2OCO4)C3)cc(F)c2c1CCCO2` (atropisomer, axis not shown; (M)) [Example 216, (S)-2-((M)-2-(benzo[d][1,3]dioxol-4-ylmethyl)-6-(8-fluoro-5-methylchroman-6-yl)-4,7-dimethylisoindolin-5-yl)-2-(tert-butoxy)acetic acid], the pIC50 is 8.40.
Still for that read-out and setting: in the case of `Cc1ccc(-c2c(C)c3c(c(C)c2[C@H](OC(C)(C)C)C(=O)O)CN(Cc2cccnc2)C3)cc1` [Example 41, (2S)-2-(tert-butoxy)-2-[4,7-dimethyl-6-(4-methylphenyl)-2-(pyridin-3-ylmethyl)-2,3-dihydro-1H-isoindol-5-yl]acetic acid] it was 7.30.
Still for that read-out and setting: the value for `Cc1c(-c2c(C)c3c(c(C)c2[C@H](OC(C)(C)C)C(=O)O)CN(C(=O)N2CCCC(F)(F)C2)C3)cc(F)c2c1CCCO2` (atropisomer, axis not shown) [Example 102, (S)-2-(tert-butoxy)-2-((R)-2-(3,3-difluoropiperidine-1-carbonyl)-6-(8-fluoro-5-methylchroman-6-yl)-4,7-dimethylisoindolin-5-yl)acetic acid] was 8.70; that for `Cc1ccc(-c2c(C)c3c(c(C)c2[C@H](OC(C)(C)C)C(=O)O)CN(Cc2cccc(F)c2F)C3)cc1` [Example 3, (S)-2-(tert-butoxy)-2-(2-(2,3-difluorobenzyl)-4,7-dimethyl-6-(p-tolyl)isoindolin-5-yl)acetic acid] was 7.40.
On to `Cc1ccc(-c2c(C)c3c(c(C)c2[C@H](OC(C)(C)C)C(=O)O)CN(C(=O)OC(C)(C)C)C3)cc1` [Example 126, (S)-2-(tert-butoxy)-2-(2-(tert-butoxycarbonyl)-4,7-dimethyl-6-(p-tolyl)isoindolin-5-yl)acetic acid], for which the negative-log IC50 (pIC50) is 7.89.
Still for that read-out and setting: the value for `Cc1ccc(Cl)cc1C(=O)N1Cc2c(C)c(-c3cc(F)c4c(c3C)CCCO4)c([C@H](OC(C)(C)C)C(=O)O)c(C)c2C1` (atropisomer, axis not shown; (M)) [Example 185, (S)-2-(tert-butoxy)-2-((M)-2-(5-chloro-2-methylbenzoyl)-6-(8-fluoro-5-methylchroman-6-yl)-4,7-dimethylisoindolin-5-yl)acetic acid] was 8.40.
On the same count and under the same terms, in the case of `Cc1ccc(-c2c(C)c3c(c(C)c2[C@H](OC(C)(C)C)C(=O)O)CN(C(=O)NC2CCCCC2)C3)cc1` [Example 4, (S)-2-(tert-Butoxy)-2-(2-(cyclohexylcarbamoyl)-4,7-dimethyl-6-(p-tolyl)isoindolin-5-yl)acetic acid] it was 7.48.
Still for that read-out and setting: the value for `Cc1ccc(-c2c(C)c3c(c(C)c2[C@H](OC(C)(C)C)C(=O)O)CN(C(=O)N[C@@H](C)C2CCCCC2)C3)cc1` [Example 99, (S)-2-(tert-butoxy)-2-(2-(((S)-1-cyclohexylethyl)carbamoyl)-4,7-dimethyl-6-(p-tolyl)isoindolin-5-yl)acetic acid] was 7.35; that for `Cc1ccc(-c2c(C)c3c(c(C)c2[C@H](OC(C)(C)C)C(=O)O)CN(C(=O)c2ccccc2C)C3)cc1` [Example 219, (S)-2-(tert-butoxy)-2-(4,7-dimethyl-2-(2-methylbenzoyl)-6-(p-tolyl)isoindolin-5-yl)acetic acid] was 8.40.
As to `Cc1ccc(-c2c(C)c3c(c(C)c2[C@H](OC(C)(C)C)C(=O)O)CN(C(=O)C2CCC(F)(F)CC2)C3)cc1` [Example 111, (S)-2-(tert-butoxy)-2-(2-(4,4-difluorocyclohexanecarbonyl)-4,7-dimethyl-6-(p-tolyl)isoindolin-5-yl)acetic acid], the pIC50 is 7.80.
Same read-out and setting: in the case of `Cc1ccc(-c2c(C)c3c(c(C)c2[C@H](OC(C)(C)C)C(=O)O)CN(C(=O)N[C@H]2CC[C@H](C)CC2)C3)cc1` [Example 33, (S)-2-(tert-butoxy)-2-(4,7-dimethyl-2-(((1r,4S)-4-methylcyclohexyl)carbamoyl)-6-(p-tolyl)isoindolin-5-yl)acetic acid] it was 6.21.
On the same count and under the same terms, in the case of `Cc1ccc(-c2c(C)c3c(c(C)c2[C@H](OC(C)(C)C)C(=O)O)CN(C(=O)N(C)C)C3)cc1` [Example 59, (2S)-2-(tert-butoxy)-2-[2-(dimethylcarbamoyl)-4,7-dimethyl-6-(4-methylphenyl)-2,3-dihydro-1H-isoindol-5-yl]acetic acid] it was 6.55; in that of `COc1ccc(C(=O)N2Cc3c(C)c(-c4cc(F)c5c(c4C)CCCO5)c([C@H](OC(C)(C)C)C(=O)O)c(C)c3C2)c(C)c1` (atropisomer, axis not shown; (M)) [Example 286, (S)-2-(tert-butoxy)-2-((M)-6-(8-fluoro-5-methylchroman-6-yl)-2-(4-methoxy-2-methylbenzoyl)-4,7-dimethylisoindolin-5-yl)acetic acid], 7.96.
Compound `Cc1c(-c2c(C)c3c(c(C)c2[C@H](OC(C)(C)C)C(=O)O)CN(C(=O)c2cccc4c2OCCO4)C3)cc(F)c2c1CCCO2` (atropisomer, axis not shown; (M)) [Example 153, (S)-2-(tert-butoxy)-2-((M)-2-(2,3-dihydrobenzo[b][1,4]dioxine-5-carbonyl)-6-(8-fluoro-5-methylchroman-6-yl)-4,7-dimethylisoindolin-5-yl)acetic acid] had a pIC50 of 8.40. This pIC50 is 0.44 log units higher than that of the compound before.
As for `Cc1c2c(c(C)c([C@H](OC(C)(C)C)C(=O)O)c1-c1ccc(Cl)cc1)CN(C(=O)C1CCCCC1)C2` [Example 134, (S)-2-(tert-butoxy)-2-(6-(4-chlorophenyl)-2-(cyclohexanecarbonyl)-4,7-dimethylisoindolin-5-yl)acetic acid], the negative logarithm of the IC50 (pIC50) was 8.22.
Compound `Cc1c(-c2c(C)c3c(c(C)c2[C@H](OC(C)(C)C)C(=O)O)CN(C(=O)N2CCCC[C@H]2C)C3)cc(F)c2c1CCCO2` (atropisomer, axis not shown; (M)) [Example 205, (S)-2-(tert-butoxy)-2-((M)-6-(8-fluoro-5-methylchroman-6-yl)-4,7-dimethyl-2-((M)-2-methylpiperidine-1-carbonyl)isoindolin-5-yl)acetic acid] gave a negative-log IC50 (pIC50) of 8.40.
`Cc1ccc(-c2c(C)c3c(c(C)c2[C@H](OC(C)(C)C)C(=O)O)CN(C(=O)c2cccc(B(O)O)c2)C3)cc1` [Example 257, (S)-2-(2-(3-boronobenzoyl)-4,7-dimethyl-6-(p-tolyl)isoindolin-5-yl)-2-(tert-butoxy)acetic acid]: the pIC50 was 6.87.
Still for that read-out and setting: the value for `Cc1ccc(-c2c(C)c3c(c(C)c2[C@H](OC(C)(C)C)C(=O)O)CN(C(=O)C(C)(C)C(F)(F)F)C3)cc1` [Example 241, (S)-2-(tert-butoxy)-2-(4,7-dimethyl-6-(p-tolyl)-2-(3,3,3-trifluoro-2,2-dimethylpropanoyl)isoindolin-5-yl)acetic acid] was 7.60; that for `Cc1ccc(-c2c(C)c3c(c(C)c2[C@H](OC(C)(C)C)C(=O)O)CN(C(=O)c2ccc(Cl)cc2)C3)cc1` [Example 270, (S)-2-(tert-butoxy)-2-(2-(4-chlorobenzoyl)-4,7-dimethyl-6-(p-tolyl)isoindolin-5-yl)acetic acid] was 8.40.

Still in this assay, the particulars now being: MT-4 cells; luciferase/cell titer glo readout after 96 hours; 10 point dose response.
As for `Cc1ccc(-c2c(C)c3c(c(C)c2[C@H](OC(C)(C)C)C(=O)O)CN(C(=O)c2nccn2C)C3)cc1` [Example 238, (S)-2-(tert-butoxy)-2-(4,7-dimethyl-2-(1-methyl-1H-imidazole-2-carbonyl)-6-(p-tolyl)isoindolin-5-yl)acetic acid], the pIC50 was 6.03.
